Broadly, the IC50 is the point on the concentration scale where inhibition reaches its midpoint.

Assay [1] deals with T1, Cysteine proteinase falcipain 2a (Plasmodium falciparum, UniProt Q9NBD4).
T1 sequence (Q9NBD4 whole entry): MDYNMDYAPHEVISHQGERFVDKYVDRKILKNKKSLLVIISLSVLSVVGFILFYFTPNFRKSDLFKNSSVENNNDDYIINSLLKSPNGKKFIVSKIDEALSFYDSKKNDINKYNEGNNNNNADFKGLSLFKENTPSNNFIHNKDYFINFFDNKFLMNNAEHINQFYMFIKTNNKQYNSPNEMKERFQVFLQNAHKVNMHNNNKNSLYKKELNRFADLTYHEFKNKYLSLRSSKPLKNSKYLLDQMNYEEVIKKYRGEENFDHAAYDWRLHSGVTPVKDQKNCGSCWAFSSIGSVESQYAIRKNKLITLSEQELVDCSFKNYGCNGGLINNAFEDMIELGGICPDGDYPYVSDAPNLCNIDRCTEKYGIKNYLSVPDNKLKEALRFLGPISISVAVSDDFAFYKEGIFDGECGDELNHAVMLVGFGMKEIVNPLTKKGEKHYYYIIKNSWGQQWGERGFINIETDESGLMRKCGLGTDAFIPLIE
In words: In Vitro Inhibition Assay. The procedure: (§1) In vitro antimalarial assay, antimalarial activity of the compounds was determined in vitro on chloroquine sensitive and resistant strains of plasmodium flaciparum as described earlier.

Assay [2] deals with T2, Cysteine proteinase falcipain 3 (Plasmodium falciparum (isolate 3D7), UniProt Q8IIL0).
T2 sequence (Q8IIL0 whole entry): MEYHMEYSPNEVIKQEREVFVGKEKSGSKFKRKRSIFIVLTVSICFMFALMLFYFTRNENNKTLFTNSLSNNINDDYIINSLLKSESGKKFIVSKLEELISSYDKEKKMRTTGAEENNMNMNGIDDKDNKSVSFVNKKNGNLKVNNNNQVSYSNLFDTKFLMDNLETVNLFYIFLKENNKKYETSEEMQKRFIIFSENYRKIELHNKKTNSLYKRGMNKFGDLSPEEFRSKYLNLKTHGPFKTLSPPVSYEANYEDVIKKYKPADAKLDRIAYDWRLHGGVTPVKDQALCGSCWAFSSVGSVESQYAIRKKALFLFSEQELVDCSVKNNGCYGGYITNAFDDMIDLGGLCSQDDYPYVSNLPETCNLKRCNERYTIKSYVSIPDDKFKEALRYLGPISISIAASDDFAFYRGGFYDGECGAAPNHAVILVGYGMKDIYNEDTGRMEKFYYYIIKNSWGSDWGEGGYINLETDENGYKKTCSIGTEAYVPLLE
In words: In Vitro Inhibition Assay. As for the experimental part:
as §1

Regarding `O=C(C=Cc1nc(CCc2ccccc2)c(CCCO)s1)CSCCCc1ccccc1` [Trisubsituted thiazole, 14], the IC50 in assay [1] stood at 6.6 µM; in assay [2], 29.4 µM.
On the same counts, the results for `O=C(CCc1nc(CCc2ccccc2)c(CCCO)s1)CSCCCc1ccccc1` [Trisubsituted thiazole, 15] are greater than 12.5 µM and greater than 50 µM.
On the same counts, the results for `O=CCCc1sc(CCC(=O)CSCCCc2ccccc2)nc1CCc1ccccc1` [Trisubsituted thiazole, 16] are 39.1 µM and greater than 50 µM.
The like results for `NC(=O)CCc1sc(CCC(=O)CSCCCc2ccccc2)nc1CCc1ccccc1` [Trisubsituted thiazole, 17] were, in that order, greater than 33 µM and greater than 50 µM.
`CC(=O)NCCCc1sc(CCC(=O)CSCCCc2ccccc2)nc1CCc1ccccc1` [Trisubsituted thiazole, 20]: the IC50 was greater than 33 µM in assay [1] and greater than 50 µM in assay [2].
`NC(=O)CCc1sc(NC(=O)CSCCCc2ccccc2)nc1/C=C/c1ccccc1` [Trisubsituted thiazole, 23] registered an IC50 in assay [1] of 15.3 µM. This counts as double-digit micromolar.
As for `O=C(CCc1nc(CO)c(CCc2ccccc2)s1)CSCCCc1ccccc1` [Trisubsituted thiazole, 29], the IC50 was greater than 12.5 µM in assay [1] and greater than 50 µM in assay [2].
Turning to `CC(=O)OCc1nc(CCC(=O)CSCCCc2ccccc2)sc1CCc1ccccc1` [Trisubsituted thiazole, 30], the IC50 in assay [1] was greater than 33 µM; in assay [2] it was greater than 50 µM.

The record behind these values is BindingDB's records for 0.1007/s00044-005-0126-y (University, Mississippi, 2005).
